Laboratory results: EP1247803A2, “Indolinone compounds suitable for modulation of protein kinases” (Sugen, Inc., priority 1996, dated 1998)

Target: T1, FLK-1 receptor (Mus musculus, UniProt P35918)
T1 construct: expressed in transfected cells; host or cells: NIH3T3 C7#3
Test: FLK-1 ELISA (kinase activity of the FLK-1 receptor in FLK-1/NIH3T3 cells, VEGF stimulated)
Type: cell-based
Procedure, shortened: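 NIH3T3 C7#3 cells expressing FLK-1 were seeded at 25.000 cells/well, serum-starved overnight in 0.1% FBS, then treated with compound for two hours at 37°C (final DMSO 0.5%) before VEGF stimulation. Receptor was captured on anti-rabbit IgG-coated ELISA plates bearing affinity-purified anti-FLK-1 antiserum.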

T1 sequence (P35918 20-1345): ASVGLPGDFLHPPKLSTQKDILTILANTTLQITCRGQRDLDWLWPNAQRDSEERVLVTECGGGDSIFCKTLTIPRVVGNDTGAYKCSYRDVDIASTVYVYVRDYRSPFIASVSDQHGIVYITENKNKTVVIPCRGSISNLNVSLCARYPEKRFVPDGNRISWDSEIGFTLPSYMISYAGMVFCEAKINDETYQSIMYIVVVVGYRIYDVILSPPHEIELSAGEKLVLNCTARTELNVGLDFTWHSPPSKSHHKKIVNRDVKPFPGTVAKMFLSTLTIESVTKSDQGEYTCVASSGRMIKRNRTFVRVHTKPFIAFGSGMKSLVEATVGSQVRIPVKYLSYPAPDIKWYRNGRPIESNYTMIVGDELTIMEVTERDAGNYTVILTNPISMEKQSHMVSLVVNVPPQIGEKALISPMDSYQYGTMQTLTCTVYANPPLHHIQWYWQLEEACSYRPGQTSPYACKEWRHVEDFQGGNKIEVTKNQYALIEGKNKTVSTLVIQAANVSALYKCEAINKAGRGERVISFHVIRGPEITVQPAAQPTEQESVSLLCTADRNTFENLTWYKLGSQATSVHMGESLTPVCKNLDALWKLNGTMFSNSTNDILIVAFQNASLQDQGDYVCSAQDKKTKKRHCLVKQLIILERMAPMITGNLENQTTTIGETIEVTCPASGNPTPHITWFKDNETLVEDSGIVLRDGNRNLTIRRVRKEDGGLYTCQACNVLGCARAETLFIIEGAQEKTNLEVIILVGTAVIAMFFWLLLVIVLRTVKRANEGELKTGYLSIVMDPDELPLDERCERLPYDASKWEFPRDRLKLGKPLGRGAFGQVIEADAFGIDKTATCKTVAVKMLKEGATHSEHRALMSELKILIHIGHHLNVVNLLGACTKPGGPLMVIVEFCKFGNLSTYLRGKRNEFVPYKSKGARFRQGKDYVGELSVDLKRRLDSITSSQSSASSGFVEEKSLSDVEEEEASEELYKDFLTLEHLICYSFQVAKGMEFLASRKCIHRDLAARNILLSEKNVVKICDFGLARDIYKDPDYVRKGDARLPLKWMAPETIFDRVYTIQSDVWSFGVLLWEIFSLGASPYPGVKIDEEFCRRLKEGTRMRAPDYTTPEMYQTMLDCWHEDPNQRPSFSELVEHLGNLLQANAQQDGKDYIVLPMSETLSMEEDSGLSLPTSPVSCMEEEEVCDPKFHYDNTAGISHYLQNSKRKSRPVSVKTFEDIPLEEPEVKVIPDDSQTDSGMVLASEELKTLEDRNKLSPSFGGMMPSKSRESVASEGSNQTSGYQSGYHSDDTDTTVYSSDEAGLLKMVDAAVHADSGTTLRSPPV

Row | Structure (SMILES) | Fik Kinase %Inhibition
1 | O=C1Nc2ccc(I)cc2C1=Cc1cc(O)c2c(c1O)CCCC2 [10726/B07] | -36.5%
2 | O=C1Nc2ccc(F)cc2C1=C1C(=O)Nc2ccc(I)cc21 [10726/B08] | 12.2%
3 | CCc1ccc(C=C2C(=O)Nc3ccc(I)cc32)s1 [10726/B10] | 3.7%
4 | COc1ccc(C=C2C(=O)Nc3ccc(I)cc32)cc1 [10726/B11] | 7.4%
5 | CCOC(=O)c1[nH]c(C=C2C(=O)Nc3ccc(Br)c(C)c32)c(C(=O)OC)c1C [10726/C03] | 24.9%
6 | Cc1cc(C=C2C(=O)Nc3ccc(Br)c(C)c32)cc(C(C)(C)C)c1O [10726/C04] | 12.3%
7 | Cc1c(Br)ccc2c1C(=Cc1ccc(Br)o1)C(=O)N2 [10726/C05] | 4.0%
8 | Cc1cn(C)cc1C=C1C(=O)Nc2ccc(Br)c(C)c21 [10726/C06] | 23.8%
9 | Cc1c(Br)ccc2c1C(=Cc1cc(O)c3c(c1O)CCCC3)C(=O)N2 [10726/C07] | -17.0%
